A value given as a limit tells only on which side of the number the result lay.

For one experiment, the system named is HEK293 cells. In words: HEK293 VLCFA-LPC IC50 determination (13C-labeled C26:0 LPC by UHPLC/MS). In kind it is cell-based, human. As to conditions: Homo sapiens, HEK293, 48 h, average of one or more replicates; 13C-labeled C26:0 LPC, 48 hours; read-out: Average HEK293 IC50. In a few lines: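 Suspension HEK293 cells (final 0.5 million/mL after mixing with equal volume) incubated 48 hours with compound plus 13C-acetate (1.0 mg/mL in added media), shaking at 37° C. Lipids extracted with hexane/isopropanol or methanol, C13:0 LPC standard. UHPLC/MS of 13C-labeled C26:0 LPC (638.500/104.100 m/z); IC50 by four-parameter fit.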
Broadly, the IC50 is the midpoint of a concentration-inhibition curve. Take `COc1ncc(-n2ccc(NC(=O)C3(c4ccccc4F)CC3)n2)cn1` [Compound 338, 1-(2-fluorophenyl)-N-[1-(2-methoxylpyrimidin-5-yl)pyrazol-3-yl]cyclopropanecarboxamide]: the IC50 is greater than 5000 nM.
Consider `COc1ncncc1-n1ccc(NC(=O)C2(c3ccccc3F)CC2)n1` [Compound 353, 1-(2-fluorophenyl)-N-[1-(4-methoxypyrimidin-5-yl)pyrazol-3-yl]cyclopropanecarboxamide], for which the IC50 worked out at 2200 nM.
Still for that read-out and setting: then `Nc1ccc(-n2ccc(NC(=O)C3(c4ccccc4F)CC3)n2)cc1F` [Compound 387, N-[1-(4-amino-3-fluoro-phenyl)pyrazol-3-yl]-1-(2-fluorophenyl)cyclopropanecarboxamide], with 1100 nM; and `Cc1nccc(-n2ccc(NC(=O)C3(c4ccccc4F)CC3)n2)c1C` [Compound 343, N-[1-(2,3-dimethyl-4-pyridyl)pyrazol-3-yl]-1-(2-fluorophenyl)cyclopropanecarboxamide], with greater than 5000 nM; and `Cc1ncncc1-n1ccc(NC(=O)C2(c3ccccc3F)CC2)n1` [Compound 341, 1-(2-fluorophenyl)-N-[1-(4-methylpyrimidin-5-yl)pyrazol-3-yl]cyclopropanecarboxamide], with 700 nM.
Still for that read-out and setting: as for `Cc1ncc(C#N)c(-n2ccc(NC(=O)C3(c4ccccc4F)CC3)n2)n1` [Compound 344, N-[1-(5-cyano-2-methyl-pyrimidin-4-yl)pyrazol-3-yl]-1-(2-fluorophenyl)cyclopropanecarboxamide], the figure is greater than 5000 nM; as for `Cc1ncc(-n2ccc(NC(=O)C3(c4ccccc4F)CC3)n2)cc1F` [Compound 349, N-[1-(5-fluoro-6-methyl-3-pyridyl)pyrazol-3-yl]-1-(2-fluorophenyl)cyclopropanecarboxamide], 440 nM.

Still in this experiment, the particulars now being: Homo sapiens, HEK293, HEK293 cells; average of one or more replicates; read-out: Average HEK293 IC50.
For `C[C@@H](C(=O)Nc1ccn(-c2ccccc2)n1)c1ccccc1` [Compound 27, (2R)-2-phenyl-N-(1-phenylpyrazol-3-yl)propanamide], the IC50 turned out to be 210 nM.
Still for that read-out and setting: then `O=C(Cc1cccnc1)Nc1ccn(-c2ccccc2)n1` [Compound 39, N-(1-phenylpyrazol-3-yl)-2-(3-pyridyl)acetamide], with greater than 5000 nM; and `O=C(Cc1ccccc1)Nc1ccn(-c2ccc(Cl)cc2)n1` [Compound 134, N-[1-(4-chlorophenyl)pyrazol-3-yl]-2-phenyl-acetamide], with greater than 5000 nM.
On to `COc1cc(-n2ccc(NC(=O)C3(c4ncccc4F)CC3(C)C)n2)ccn1` (centres unmarked) [Compound 519, 1-(3-fluoro-2-pyridyl)-N-[1-(2-methoxy-4-pyridyl)pyrazol-3-yl]-2,2-dimethyl-cyclopropanecarboxamide], for which the IC50 is greater than 2000 nM.
Take `O=C(Nc1ccn(-c2ccnc(F)c2)n1)C1(c2ccncc2F)CC1` [Compound 313, 1-(3-fluoro-4-pyridyl)-N-[1-(2-fluoro-4-pyridyl)pyrazol-3-yl]cyclopropanecarboxamide]: the IC50 stood at 1700 nM.
The same measure, in the same setting: then `O=C(Cc1ccccc1F)Nc1ccn(-c2ccc(F)c(Cl)c2)n1` [Compound 199, N-[1-(3-chloro-4-fluoro-phenyl)pyrazol-3-yl]-2-(2-fluorophenyl)acetamide], with greater than 5000 nM.
The same measure, in the same setting: as for `O=C(Nc1ccn(-c2cncnc2)n1)C1(c2ccccc2)CC1` [Compound 98, 1-phenyl-N-(1-pyrimidin-5-ylpyrazol-3-yl)cyclopropanecarboxamide], the figure is 110 nM; as for `O=C(Nc1ccn(-c2ccccc2)n1)C1(c2ccc(Cl)cc2)CC1` [Compound 23, 1-(4-chlorophenyl)-N-(1-phenylpyrazol-3-yl)cyclopropanecarboxamide], 830 nM; as for `O=C(Cn1cccc1)Nc1ccn(-c2ccnc(F)c2)n1` [Compound 295, N-[1-(2-fluoro-4-pyridyl)pyrazol-3-yl]-2-pyrrol-1-yl-acetamide], greater than 5000 nM.
The same measure, in the same setting: then `O=C(Cc1ccncc1)Nc1ccn(-c2ccccc2)n1` [Compound 38, N-(1-phenylpyrazol-3-yl)-2-(4-pyridyl)acetamide], with greater than 5000 nM; and `O=C(Nc1ccn(-c2ccccc2)n1)C1(c2ccc(Cl)cc2)CCCC1` [Compound 79, 1-(4-chlorophenyl)-N-(1-phenylpyrazol-3-yl)cyclopentanecarboxamide], with greater than 5000 nM; and `O=C(Cc1ccccc1F)Nc1ccn(-c2ccccn2)n1` [Compound 211, 2-(2-fluorophenyl)-N-[1-(2-pyridyl)pyrazol-3-yl]acetamide], with 1700 nM.
On to `O=C(Nc1ccn(-c2ccc(Cl)nc2)n1)C1(c2ccccc2F)CC1` [Compound 107, N-[1-(6-chloro-3-pyridyl)pyrazol-3-yl]-1-(2-fluorophenyl)cyclopropanecarboxamide], for which the concentration for half-maximal inhibition (IC50) worked out at 84 nM.
Take `O=C(Nc1ccn(-c2ccncn2)n1)C1(c2ccccc2)CC1` [Compound 207, 1-phenyl-N-(1-pyrimidin-4-ylpyrazol-3-yl)cyclopropanecarboxamide]: the IC50 is 36 nM.
Same read-out and setting: as for `O=C(Nc1ccn(-c2ccncc2)n1)C1(c2cccs2)CC1` [Compound 482, N-[1-(4-pyridyl)pyrazol-3-yl]-1-(2-thienyl)cyclopropanecarboxamide], the figure is 39 nM; as for `Cc1cc(C)cc(C2(C(=O)Nc3ccn(-c4ccnc(F)c4)n3)CC2)c1` [Compound 248, 1-(3,5-dimethylphenyl)-N-[1-(2-fIuoro-4-pyridyl)pyrazol-3-yl]cyclopropanecarboxamide], greater than 5000 nM.
As to `O=C(Cc1c(F)cccc1F)Nc1ccn(-c2ccccc2)n1` [Compound 61, 2-(2,6-difluorophenyl)-N-(1-phenylpyrazol-3-yl)acetamide], the IC50 amounted to 65 nM.
Same read-out and setting: then `COc1ncc(-n2ccc(NC(=O)C3(c4ncccc4F)CC3)n2)cn1` [Compound 454, 1-(3-fluoro-2-pyridyl)-N-[1-(2-methoxypyrimidin-5-yl)pyrazol-3-yl]cyclopropanecarboxamide], with greater than 5000 nM; and `O=C(Cc1ccccc1F)Nc1ccn(-c2ccc(F)c(F)c2)n1` [Compound 191, N-[1-(3,4-difluorophenyl)pyrazol-3-yl]-2-(2-fluorophenyl)acetamide], with 240 nM; and `O=C(Nc1ccn(-c2nccs2)n1)C1(c2ccccc2)CC1` [Compound 81, 1-phenyl-N-(1-thiazol-2-ylpyrazol-3-yl)cyclopropanecarboxamide], with 11 nM.
The same measure, in the same setting: then `O=C(Nc1ccn(-c2ccc(Cl)cc2)n1)C1(c2ccccc2)CC1` [Compound 132, N-[1-(4-chlorophenyl)pyrazol-3-yl]-1-phenyl-cyclopropanecarboxamide], with greater than 5000 nM; and `O=C(Nc1ccn(-c2cncs2)n1)C1(c2ccccc2F)CC1` [Compound 217, 1-(2-fluorophenyl)-N-(1-thiazol-5-ylpyrazol-3-yl)cyclopropanecarboxamide], with 84 nM; and `O=C(Nc1ccn(-c2ccc(F)c(F)c2)n1)C1(c2ncccn2)CC1` [Compound 532, N-[1-(3,4-difluorophenyl)pyrazol-3-yl]-1-pyrimidin-2-yl-cyclopropanecarboxamide], with greater than 5000 nM.
On the same count and under the same terms, then `O=C(Cc1ccccc1F)Nc1ccn(-c2ccc(Cl)nc2)n1` [Compound 104, N-[1-(6-chloro-3-pyridyl)pyrazol-3-yl]-2-(2-fluorophenyl)acetamide], with 320 nM.
As for `O=C(Nc1ccn(-c2ccccc2)n1)C1(c2ccccn2)CC1` [Compound 225, N-(1-phenylpyrazol-3-yl)-1-(2-pyridyl)cyclopropanecarboxamide], the IC50 came out at 75 nM.

(Values after patent US20180251431A1 (VERTEX PHARMACEUTICALS INCORPORATED, priority 2016, published 2018).)
